# Measurements reported in patent US6586404B1 (priority 1996, dated 2003).
# Like-named read-outs stand apart in the source and are kept apart here.
# How the values were obtained:
# [1] = tested on: Mouse; conditions: pretreatment with GSH; cited from earlier work
# [2] = in vivo; conditions: po
# Source text: Once past the stomach, it is important that the glutathione be immediately available for absorption, as the desulfurases and peptidases from the pancreas, as well as the increase in pH, do tend to degrade the glutathione. […] Thus, by providing a high concentration of glutathione in the duodenum, without substantial dilution, the glutathione may be absorbed at a maximum rate.
# [3] = tested on: systolic and diastolic blood pressure; conditions: cited from earlier work
# [4] = tested on: guinea pigs; conditions: non-ascorbate deficient animals, double the dose of 3.75 mmol/kg daily; cited from earlier work
# [5] = human, in vivo, iv; cited from earlier work
structure (smiles),measurement,setting,value
"N[C@@H](CCC(=O)N[C@@H](CS)C(=O)NCC(=O)O)C(=O)O [GSH, gamma-glutamyl-cysteinyl-glycine]",effect on morphine-induced lethality,[1],protects against morphine-induced lethality
same,bioavailability,[2],~90%
same,time of return of blood pressure to baseline,"[3]; 1,844 mg i.v. bolus",≤ 30 min
same,blood pressure effect,"[3]; 1,844 mg i.v. bolus, hypertensive patients and non-hypertensive diabetics",rapid and significant decrease in both systolic and diastolic blood pressure
same,blood pressure effect,"[3]; 1,844 mg i.v. bolus, normal healthy subjects",no effect
same,blood pressure effect,"[3]; 3,699 mg dose, normal subjects",significant decrease in the blood pressure values
same,toxicity,[4],seen at double this dose
same,half-life,[5],14.1−9.2 minutes
same,volume of distribution of exogenous glutathione,[5],176−107 Ml/Kg
